Source: patent US6727264B1 (Synaptic Pharmaceutical Corporation, priority 2001, dated 2004)

Tests used:
[1] = molecular target: human Dopamine D2 receptor (Homo sapiens, UniProt P14416); assay: Binding affinity at cloned human Dopamine D2 receptor; conditions: read-out: hD2 Ki
[2] = molecular target: T1, human Histamine H1 receptor (Homo sapiens, UniProt P35367); assay: Binding affinity at cloned human Histamine H1 receptor; conditions: read-out: hH1 Ki
T1 construct: expressed in transfected cells
T1 sequence (P35367 whole entry): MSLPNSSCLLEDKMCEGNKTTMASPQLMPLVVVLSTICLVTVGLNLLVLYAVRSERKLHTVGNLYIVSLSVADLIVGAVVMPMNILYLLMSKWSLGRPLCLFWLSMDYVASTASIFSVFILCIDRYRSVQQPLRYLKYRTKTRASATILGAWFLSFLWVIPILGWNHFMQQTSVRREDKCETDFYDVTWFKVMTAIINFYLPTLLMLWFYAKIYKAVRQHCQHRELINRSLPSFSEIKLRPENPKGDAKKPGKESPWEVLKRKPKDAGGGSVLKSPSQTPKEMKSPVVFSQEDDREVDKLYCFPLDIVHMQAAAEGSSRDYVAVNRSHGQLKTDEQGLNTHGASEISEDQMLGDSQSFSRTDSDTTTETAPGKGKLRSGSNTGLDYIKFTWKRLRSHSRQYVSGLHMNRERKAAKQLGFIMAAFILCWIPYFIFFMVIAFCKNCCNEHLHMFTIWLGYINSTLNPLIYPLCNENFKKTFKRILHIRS

[3] = molecular target: T2, human Alpha-1a Adrenergic receptor (Homo sapiens, UniProt P35348); assay: Binding affinity at cloned human Alpha-1a Adrenergic receptor; conditions: read-out: hALPHA-1a Ki
T2 construct: expressed in transfected cells
T2 sequence (P35348 1-466): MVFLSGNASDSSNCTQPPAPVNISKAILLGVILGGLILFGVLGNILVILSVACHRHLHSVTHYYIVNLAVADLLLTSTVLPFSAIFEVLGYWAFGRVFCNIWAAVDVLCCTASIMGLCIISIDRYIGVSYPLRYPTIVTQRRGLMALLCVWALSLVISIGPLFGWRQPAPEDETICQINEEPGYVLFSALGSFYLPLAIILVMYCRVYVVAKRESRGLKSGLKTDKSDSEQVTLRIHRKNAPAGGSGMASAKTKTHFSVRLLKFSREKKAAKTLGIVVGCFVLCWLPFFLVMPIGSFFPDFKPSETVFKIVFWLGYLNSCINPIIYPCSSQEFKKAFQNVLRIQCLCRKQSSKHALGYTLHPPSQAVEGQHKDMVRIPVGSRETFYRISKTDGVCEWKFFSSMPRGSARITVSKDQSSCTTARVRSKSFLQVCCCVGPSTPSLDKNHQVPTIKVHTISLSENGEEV

[4] = molecular target: T3, rat MCH-1 (Rattus norvegicus, UniProt P97639); assay: Radioligand binding assay at cloned rat MCH1 receptor ([3H] Compound A); set-up: host or cells: Peak rapid 293 (Peakr293) cells, transient calcium phosphate transfection, membranes; conditions: cloned rat MCH1 receptor, membranes from Peakr293 cells, 0.08 nM [3H] Compound A; read-out: Ki (nM) rMCH1
T3 sequence (P97639 whole entry): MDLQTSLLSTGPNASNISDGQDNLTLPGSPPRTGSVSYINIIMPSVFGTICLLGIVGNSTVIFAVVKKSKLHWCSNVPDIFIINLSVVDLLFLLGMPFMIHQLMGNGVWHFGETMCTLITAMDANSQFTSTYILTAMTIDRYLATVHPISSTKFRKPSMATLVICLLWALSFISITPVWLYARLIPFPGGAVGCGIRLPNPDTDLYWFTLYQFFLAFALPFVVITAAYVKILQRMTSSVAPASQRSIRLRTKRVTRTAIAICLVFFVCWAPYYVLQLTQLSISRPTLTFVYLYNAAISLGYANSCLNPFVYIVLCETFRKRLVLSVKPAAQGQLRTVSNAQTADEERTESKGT

[5] = test system: Female Sprague Dawley rats; assay: Distension-induced rhythmic contraction (DIRC) model of the micturition reflex; assay type: in vivo, rat; set-up: key: E: Produced a significant increase in contraction interval relative to pre-drug interval; conditions: urethane-anesthetized female rats, i.v. or i.p.; vs pre-drug interval
Experimental: The effects of compounds on the micturition reflex were assessed in the “distension-induced rhythmic contraction” (DIRC), as described in previous publications (e.g. Maggi et al, 1987; Morikawa et al, 1992), and Continuous Slow Transvesicular Infusion (CSTI) models in rats. Female Sprague Dawley rats weighing approximately 300 g were anesthetized with subcutaneous urethane (1.2 g/kg). The trachea was cannulated with PE240 tubing to provide a clear airway throughout the experiment. A midline abdominal incision was made and the left and right ureters were isolated. The ureters were ligated distally (to prevent escape of fluids from the bladder) and cannulated proximally with PE10 tubing. The incision was closed using 4-0 silk sutures, leaving the PE10 lines routed to the exterior for the elimination of urine. The bladder was canulated via the transurethral route using PE50 tubing inserted 2.5 cm beyond the urethral opening. This cannula was secured to the tail using tape and connected to a pressure transducer. To prevent leakage from the bladder, the cannula was tied tightly to the exterior urethral opening using 4-0 silk. To initiate the micturition reflex, the bladder was first emptied by applying pressure to the lower abdomen, and then filled with normal saline in […] (maximum=2 ml) until spontaneous bladder contractions occurred (typically 20-40 mmHg at a rate of one contraction every 2 to 3 minutes. Once a regular rhythm was established, vehicle (saline) or Test Compounds were administered i.v. or i.p. to explore their effects on bladder activity. The 5-HT1A antagonist WAY-100635 was given as a positive control. Data were expressed as contraction interval (in seconds) before drug application (basal), or after the application of vehicle or test article.

[6] = test system: Male Sprague Dawley rats; assay: Continuous Slow Transvesicular Infusion (CSTI) rat model; assay type: in vivo; set-up: key: F: Produced an increase in bladder capacity in rats relative to baseline capacity; conditions: intragastric administration, vs baseline capacity
Experimental: The effects of compounds on the micturition reflex were assessed in the “distension-induced rhythmic contraction” (DIRC), as described in previous publications (e.g. Maggi et al, 1987; Morikawa et al, 1992), and Continuous Slow Transvesicular Infusion (CSTI) models in rats. Male Sprague Dawley rats weighing approximately 300 g were used for the study. Rats were anaesthetized with pentobarbitone sodium (50 mg/kg, i.p). Through a median abdominal incision, bladder was exposed and a polyethylene cannula (PE 50) was introduced into the bladder through a small cut on the dome of the bladder and the cannula was secured with a purse string suture. The other end of the cannula was exteriorized subcutaneously at the dorsal neck area. Similarly, another cannula (PE 50) was introduced into the stomach through a paramedian abdominal incision with the free end exteriorized subcutaneously to the neck region. The surgical wounds were closed with silk 4-0 suture and the animal was allowed to recover with appropriate post surgical care. On the following day, the animal was placed in a rat restrainer. The open end of the bladder-cannula was connected to a pressure transducer as well as infusion pump through a three-way stopcock. The bladder voiding cycles were initiated by continuous infusion of normal saline at the rate of 100 μl/min. The repetitive voiding contractions were recorded on a Power Lab on-line data acquisition software. After recording the basal voiding pattern for an hour, the test drug or vehicle was administered directly into stomach through the intragastric catheter and the voiding cycles were monitored for 5 hours. Micturition pressure and frequency were calculated before and after the treatment (at every 30 min interval) for each animal. Bladder capacity was calculated from the micturition frequency, based on the constant infusion of 100 ul/min. The effect of the test drug was expressed as a percentage of basal, pre-drug bladder capacity. WAY 100635 was used as positive control for comparison.

[7] = molecular target: human MCH-1 (Homo sapiens, UniProt Q99705); conditions: cited from earlier work
human MCH-1, sequence (Q99705 whole entry): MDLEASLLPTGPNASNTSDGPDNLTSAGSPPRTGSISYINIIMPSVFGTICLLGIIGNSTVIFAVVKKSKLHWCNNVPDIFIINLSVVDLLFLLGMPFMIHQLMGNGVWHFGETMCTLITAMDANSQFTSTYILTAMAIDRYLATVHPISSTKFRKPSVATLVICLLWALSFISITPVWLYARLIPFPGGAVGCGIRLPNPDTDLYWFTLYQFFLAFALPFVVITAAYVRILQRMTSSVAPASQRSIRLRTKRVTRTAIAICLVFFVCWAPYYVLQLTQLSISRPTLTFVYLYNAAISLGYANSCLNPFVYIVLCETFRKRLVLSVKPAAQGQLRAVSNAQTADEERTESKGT

[8] = test system: food intake induced by the intracerebroventricular application of MCH; conditions: in vivo; cited from earlier work
[9] = molecular target: T3, rat MCH-1; conditions: cited from earlier work
[10] = test system: G4F-7 cells; conditions: cited from earlier work

human Dopamine D2 receptor, sequence (P14416 whole entry): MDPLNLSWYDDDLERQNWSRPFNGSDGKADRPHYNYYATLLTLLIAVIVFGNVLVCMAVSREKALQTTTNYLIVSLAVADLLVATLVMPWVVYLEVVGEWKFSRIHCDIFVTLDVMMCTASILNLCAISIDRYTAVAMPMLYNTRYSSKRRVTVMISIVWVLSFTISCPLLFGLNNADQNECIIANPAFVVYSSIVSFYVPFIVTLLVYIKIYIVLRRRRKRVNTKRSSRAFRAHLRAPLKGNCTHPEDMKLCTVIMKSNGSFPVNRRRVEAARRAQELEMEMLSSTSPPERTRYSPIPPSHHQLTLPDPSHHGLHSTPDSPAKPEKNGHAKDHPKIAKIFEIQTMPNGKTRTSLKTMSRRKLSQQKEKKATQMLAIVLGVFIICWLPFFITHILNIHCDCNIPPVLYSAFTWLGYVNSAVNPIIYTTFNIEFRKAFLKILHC

## CC(C)C(=O)Nc1cccc(C2CCN(CCC(OC(=O)c3cccc4ccccc34)c3ccccc3)CC2)c1 (stereo in doubt) [Example 69, (1S)-3-{4-[3-(ISOBUTYRYLAMINO)PHENYL]-1-PIPERIDINYL}-1-PHENYLPROPYL 1-NAPHTHOATE]
[1]
  Ki: 46.6 nM
[2]
  Ki: > 50000 nM
[3]
  Ki: 232 nM
[4]
  Ki: 32.5 nM

## Cc1ccc(C(=O)CCCN2CCC(c3cccc(NC(=O)C(C)C)c3)CC2)cc1C [Example 2]
[5]
  DIRC (contraction interval): E
[6]
  CSTI (bladder capacity): F

## CC(C)C(=O)Nc1cccc(C2CCN(CCCC(=O)c3ccc(Cl)cc3)CC2)c1 [Example 10]
[5]
  DIRC (contraction interval): E
[6]
  CSTI (bladder capacity): F

## COC(CCN1CCC(c2cccc(NC(=O)C(C)C)c2)CC1)c1ccccc1 (stereo not drawn) [Example 37]
[1]
  Ki: 34900 nM

## CC(=O)Nc1cccc(C2CCN(CCCNC(=O)N3C(=O)O[C@H](C)[C@@H]3c3ccc(F)c(F)c3)CC2)c1 [Example 75]
[1]
  Ki: 19000 nM
[2]
  Ki: 2840 nM
[3]
  Ki: 2470 nM
[4]
  Ki: 11.8 nM

## CC(C)C(=O)Nc1cccc(C2CCN(CC[C@H](Oc3ccc(-c4ccccc4)cc3)c3ccccc3)CC2)c1 [Example 78]
[2]
  Ki: > 50000 nM

## COc1ccc2[nH]c(-c3ccccc3)c(CCCN3CCC(c4cccc(NC(=O)C(C)C)c4)CC3)c2c1 [Example 91]
[5]
  DIRC (contraction interval): E
[6]
  CSTI (bladder capacity): F

## CCn1c2ccccc2c2cc(CN3CCC(c4cccc(NC(=O)C(C)C)c4)CC3)ccc21 [Example 99]
[5]
  DIRC (contraction interval): E
[6]
  CSTI (bladder capacity): F

## Cc1onc(-c2c(Cl)cccc2Cl)c1C(=O)NCCCCCN1CCC(c2cccc(NC(=O)C(C)C)c2)CC1 [Example 106]
[5]
  DIRC (contraction interval): E
[6]
  CSTI (bladder capacity): F

## CC(=O)c1cccc(O[C@H](CCN2CCC(c3cccc(NC(=O)C(C)C)c3)CC2)c2ccccc2)c1 [Example 116]
[5]
  DIRC (contraction interval): E
[6]
  CSTI (bladder capacity): F

## CN(C)CC1CCc2cc(NC(=O)c3ccc(-c4ccc(F)cc4)cc3)ccc2C1 (stereo not drawn) [Example T-226296, T-226296]
[7]
  affinity for the MCH-1 receptor: 5 to 9 nM
[8]
  food intake induced by intracerebroventricular MCH: inhibit food intake
[9]
  affinity for the MCH-1 receptor: 5 to 9 nM

## [Phe^13, Tyr^19]-MCH
[10]; radioiodinated ligand, G4F-7 cells
  Kd: 0.118 nM

## rat ANF
[10]; mouse melanoma cells, read-out: Ki (inhibition of [Phe13,Tyr19]-MCH binding)
  Ki: 116 nM
